Assay results from BindingDB's records for doi:10.1021/acs.jmedchem.7b01492 (Peking University, 2019).
pEC50: −log10 of the molar value.

Target: Neuronal acetylcholine receptor subunit alpha-7 (Homo sapiens, UniProt P36544)
Experiment: Positive allosteric modulation of human alpha7 nAChR expressed in Xenopus laevis oocytes assessed as increase in acetylcholine-induced channel current by measuring acetylcholine EC50 at 10 uM at -90 mV holding potential preincubated for 2 mins followed by co-application with acetylcholine for 10 secs by two-electrode voltage clamp method (Rvb = 256.4 +/- 20.1 uM)

Chain of Neuronal acetylcholine receptor subunit alpha-7 (P36544 whole entry): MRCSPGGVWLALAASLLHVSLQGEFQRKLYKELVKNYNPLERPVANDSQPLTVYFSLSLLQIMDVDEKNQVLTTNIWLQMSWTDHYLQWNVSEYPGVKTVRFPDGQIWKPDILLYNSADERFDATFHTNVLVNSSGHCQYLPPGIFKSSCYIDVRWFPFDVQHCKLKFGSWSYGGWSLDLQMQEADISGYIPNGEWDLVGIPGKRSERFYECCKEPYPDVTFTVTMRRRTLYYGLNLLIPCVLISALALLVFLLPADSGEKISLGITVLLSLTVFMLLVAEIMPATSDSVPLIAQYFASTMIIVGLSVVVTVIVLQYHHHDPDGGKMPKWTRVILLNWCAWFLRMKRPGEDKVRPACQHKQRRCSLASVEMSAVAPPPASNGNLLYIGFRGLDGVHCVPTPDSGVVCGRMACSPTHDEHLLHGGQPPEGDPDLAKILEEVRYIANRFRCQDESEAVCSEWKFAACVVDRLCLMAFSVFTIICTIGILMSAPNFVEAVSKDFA

pEC50: 3.73
SMILES: Cc1cccc(Cl)c1-n1cnc2nc(SCc3ccccc3)sc2c1=O
